What was measured:
LPS-stimulated BMDM = assay: Pro-inflammatory cytokine levels by ELISA in LPS-stimulated BMDM; format: cell-based, murine; conditions: LPS 100 ng/mL, 10 μM NAD(H) equivalent, 12 h
Excerpt: Measurement of inflammation related cytokine levels. […] Twelve hours after the treatment, the cell culture media were collected to analyze the cytokine production by ELISA kits supplied by R&D Systems according to the manufacturer's instructions. Data were collected by monitoring the difference between the absorbance at 450 nm and 570 nm using the Microplate Reader.

[1] = system: CLP-induced sepsis with P. aeruginosa secondary infection; assay: Cecal ligation and puncture (CLP) and P. aeruginosa secondary infection model; format: in vivo, mice
Excerpt: Cecal ligation and puncture (CLP) and P. aeruginosa secondary infection model. Mice were anesthetized with isoflurane. Thereafter, the abdominal cavity was opened with a midline incision to expose the cecum. The distal 50% of the cecum was ligated with a 6-0 silk suture and perforated with a 19-gauge needle twice. Subsequently, a small amount of feces was squeezed out and spread around the cecum. The cecum was relocated into the peritoneal cavity, and the laparotomy site was closed, followed by subcutaneous injection of 1 mL resuscitative prewarmed sterile saline (Dawulieti, J. et al. Treatment of severe sepsis with nanoparticulate cell-free DNA scavengers. Science advances 6, eaay7148 (2020)). This level of injury was utilized to create a prolonged infection that impaired immune system and induced approximate 30% mortality. Two injections of free NAD^+ (20 mg/kg per injection), LP-CaP, or NAD^+-LP-CaP (an equivalent dose of NAD^+20 mg/kg per injection) were given through tail vein 6 h and 24 h after the surgery. […] Mice survival and body weight were recorded over time and presented using Kaplan—Meier curves (n=14). […] The CLP mice were monitored twice daily and their conditions were evaluated using a sepsis scoring sheet. […]

Compound	production of IL-6 (LPS-stimulated BMDM)	production of TNF-α (LPS-stimulated BMDM)	survival rate [1]
NC(=O)C1=CN([C@@H]2O[C@H](COP(=O)([O-])OP(=O)([O-])OC[C@H]3O[C@@H](n4cnc5c(N)ncnc54)[C@H](O)[C@@H]3O)[C@@H](O)[C@H]2O)C=CC1.[Na+].[Na+] [NADH, β-Nicotinamide adenine dinucleotide, reduced disodium salt]	did not affect	did not affect	
NC(=O)C1=CN([C@@H]2O[C@H](COP(=O)(O)OP(=O)(O)OC[C@H]3O[C@@H](n4cnc5c(N)ncnc54)[C@H](O)[C@@H]3O)[C@@H](O)[C@H]2O)C=CC1 [free NAD^+, β-Nicotinamide adenine dinucleotide]	did not affect	did not affect	did not improve the survival rate

Reference: patent US20230032473A1, “NAD(H) NANOPARTICLES AND METHODS OF USE” (Wisconsin Alumni Research Foundation, priority 2021, published 2023)
